This note sets out measurements from ChEMBL document CHEMBL1129102, “Design, synthesis, and evaluation of fibrinogen inhibitors, -(p-amidinophenoxy) alkanoylaspartic acid derivatives” (Bioorg Med Chem Lett, 1996).

Structures are written as SMILES.

The target of this test is Integrin alpha-IIb/beta-3 (Homo sapiens, UniProt P05106+P08514). Put plainly: Inhibition of human platelet adhesion to fibrinogen.
Integrin alpha-IIb/beta-3, sequence (P05106 27-788 limits assumed): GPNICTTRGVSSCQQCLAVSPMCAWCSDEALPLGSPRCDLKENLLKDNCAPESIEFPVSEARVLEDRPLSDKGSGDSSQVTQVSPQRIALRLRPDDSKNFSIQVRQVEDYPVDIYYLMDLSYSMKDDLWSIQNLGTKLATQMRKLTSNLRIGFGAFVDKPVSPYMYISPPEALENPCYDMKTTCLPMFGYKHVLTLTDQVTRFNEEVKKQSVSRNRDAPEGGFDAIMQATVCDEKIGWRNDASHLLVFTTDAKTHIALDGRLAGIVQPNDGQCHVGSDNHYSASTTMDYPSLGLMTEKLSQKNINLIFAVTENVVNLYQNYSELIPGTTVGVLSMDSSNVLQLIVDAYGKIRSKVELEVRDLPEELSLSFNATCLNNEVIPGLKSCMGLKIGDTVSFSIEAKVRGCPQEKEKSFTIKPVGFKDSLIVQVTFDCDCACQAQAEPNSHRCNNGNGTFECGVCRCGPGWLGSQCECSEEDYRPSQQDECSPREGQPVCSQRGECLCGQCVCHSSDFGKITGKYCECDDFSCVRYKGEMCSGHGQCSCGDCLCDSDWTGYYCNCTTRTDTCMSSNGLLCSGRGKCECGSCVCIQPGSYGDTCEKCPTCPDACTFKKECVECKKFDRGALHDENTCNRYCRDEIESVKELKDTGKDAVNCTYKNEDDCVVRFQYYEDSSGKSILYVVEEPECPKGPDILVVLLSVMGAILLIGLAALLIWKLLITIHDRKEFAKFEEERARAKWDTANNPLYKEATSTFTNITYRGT
Integrin alpha-IIb/beta-3, sequence (P08514 32-887 limits assumed): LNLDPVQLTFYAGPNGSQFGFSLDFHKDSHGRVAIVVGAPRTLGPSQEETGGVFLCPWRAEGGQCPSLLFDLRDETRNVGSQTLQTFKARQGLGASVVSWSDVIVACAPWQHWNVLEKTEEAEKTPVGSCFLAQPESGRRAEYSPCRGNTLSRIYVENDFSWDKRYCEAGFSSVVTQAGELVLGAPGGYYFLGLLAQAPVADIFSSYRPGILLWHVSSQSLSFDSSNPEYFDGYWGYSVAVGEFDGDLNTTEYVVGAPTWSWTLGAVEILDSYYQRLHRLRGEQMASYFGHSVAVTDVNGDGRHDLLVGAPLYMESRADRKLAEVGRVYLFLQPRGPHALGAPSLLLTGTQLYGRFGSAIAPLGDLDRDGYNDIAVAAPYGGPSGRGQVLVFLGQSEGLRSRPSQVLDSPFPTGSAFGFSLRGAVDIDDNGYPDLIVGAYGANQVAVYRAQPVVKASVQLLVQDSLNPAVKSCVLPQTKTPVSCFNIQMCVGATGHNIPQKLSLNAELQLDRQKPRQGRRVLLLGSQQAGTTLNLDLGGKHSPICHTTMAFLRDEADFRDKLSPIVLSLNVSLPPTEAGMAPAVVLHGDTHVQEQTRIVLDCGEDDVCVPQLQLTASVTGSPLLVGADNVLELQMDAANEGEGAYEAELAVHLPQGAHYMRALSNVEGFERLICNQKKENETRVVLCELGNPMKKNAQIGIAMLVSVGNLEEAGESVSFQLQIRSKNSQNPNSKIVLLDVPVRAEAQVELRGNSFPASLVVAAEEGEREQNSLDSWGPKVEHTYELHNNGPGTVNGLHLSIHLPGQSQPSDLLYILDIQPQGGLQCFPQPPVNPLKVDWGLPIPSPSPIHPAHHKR
Integrin alpha-IIb/beta-3, sequence (P08514 891-1039 limits assumed): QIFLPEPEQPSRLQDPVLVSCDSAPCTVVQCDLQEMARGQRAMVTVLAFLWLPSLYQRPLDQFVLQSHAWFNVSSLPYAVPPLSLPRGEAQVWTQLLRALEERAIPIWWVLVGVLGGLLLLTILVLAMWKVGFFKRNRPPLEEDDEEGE
Take `N=C(N)c1ccc(OCCCCC(=O)N[C@@H](CC(=O)O)C(=O)N[C@@H](Cc2ccc(O)cc2)C(=O)O)cc1`: the IC50 was 640 nM. The value for `CC(C)[C@H](NC(=O)[C@H](CC(=O)O)NC(=O)CCCOc1ccc(C(=N)N)cc1)C(=O)O` was 88 nM.

For `CN(C(=O)[C@H](CC(=O)O)NC(=O)CCCCOc1ccc(C(=N)N)cc1)[C@@H](Cc1ccc(O)cc1)C(=O)O`, half-maximal inhibition (IC50) required 270 nM. In the case of `CC(C)[C@H](NC(=O)[C@H](CC(=O)O)NC(=O)CCCCOc1ccc(C(=N)N)cc1)C(=O)O`, the IC50 was 230 nM.
